Measured values from article PMC6383986, “Fragment-Based Covalent Ligand Screening Enables Rapid Discovery of Inhibitors for the RBR E3 Ubiquitin Ligase HOIP” (Journal of the American Chemical Society, 2019).

Key:
IRAK4 = target: T1, IRAK4 (Homo sapiens, UniProt Q9NWZ3); experiment: IMAP-FP IRAK4 substrate phosphorylation assay; format: biochemical
T1 construct: recombinant full length IRAK4-FLAG; His6 (with the rest of the FlagHisAvi vector tag) (C, cleaved yes); made in house; host or cells: Sf9 insect cells (baculovirus)

[1] = target: T2, full-length recombinant IRAK4-FLAG (Homo sapiens, UniProt Q9NWZ3); experiment: LCMS labelling of recombinant IRAK4; format: binding; settings: 300 μM compound, 1.5 μM IRAK4, 1 h
T2 construct: recombinant full length IRAK4-FLAG; His6 (with the rest of the FlagHisAvi vector tag) (C, cleaved yes); made in house; host or cells: Sf9 insect cells (baculovirus)
Experimental: filter BODIPY FP S-pol 595). The percentage activity was plotted against different compound concentrations and fitted using the IC50 – 4 parameter logistic using GraFit7 Software (Supplementary Figure S17). Percentage activity was calculated by dividing each value by values for no inhibition, then multiplying it by 100. Background correction was carried out by subtracting […]
Two independent experiments were carried out in duplicate.
IRAK4 (1.5 µM) was incubated with compound (11a) (300 µM) in water at ambient temperature for 1 h (final volume 20 µL), and analyzed by LCMS. […]
kinase activity. A) Serial dilutions of compound (11a) (200 µM final top concentration) and IRAK4 […]
concentration) for 1 h before adding 5TAMRA-[…]-NH2 (100 nM final […]
concentration) and ATP (50 μM final concentration). […]
independent experiments, each performed in duplicate.
B) IRAK4 (1.5 µM) was incubated with compound (11a) (300 µM) for 1 h and analyzed by LCMS. The DMSO control was incubated for 5 h. For reference GT-hIRAK4-FLAG (tetraphosphorylated; MW = 53003 Da), compound (11a) (MW = 290 Da).
(1 picture or pasted object on this page, not shown here)

HOIP RBR R1032A mutant = target: T3, HOIP RBR R1032A mutant (Homo sapiens, UniProt Q96EP0, R1032A); experiment: Protein LC-MS library screen, covalent labeling; format: binding; settings: 20 μM compound, 2 μM protein, 24 h incubation
T3 construct: 697-1072; made in house; host or cells: E. coli BL21-GOLD(DE3)
Experimental: 3.1 Experimental procedures
Acquisition of mass spectrometry data was carried out using positive electrospray ionisation (ESI) on an Agilent 6224 TOF LC-MS system equipped with a Diode Array Detector (DAD), a Wellplate sampler (held at 10 °C) and an Agilent PLRP-S reverse phase column (50 mm, 1 mm diameter, 5 µm particle size) held at 70 °C. The following mobile phases were used for the LC: Mobile phase A (MP A) = 0.2% Formic acid in water, v/v; Mobile phase B (MP B) = 0.2% Formic acid in MeCN, v/v. The following LC method was employed: 0-0.5 min (10→30% B in A, v/v), 0.5-5 min (30→55% […]
mL/min. Injection volume: 10 µL. The run length was 8 min, and equilibration time 1 min after each sample. […] Between 0.5 and 6 min the TOF mass spectrometer recorded 1 spectrum per second with a scan range between 700 and 2200 AMU. […]
thawed individually and analyzed by protein mass spectrometry as described above. The total ion counts (TICs) detected for unlabelled HOIP and labelled HOIP-(5) conjugate within a peak elution range of 10 seconds were used to calculate the ratio of labelled HOIP RBR over total HOIP RBR content for each sample. The averaged data from 3 independent experiments were analyzed according to a two-step model of reversible ligand binding followed by irreversible covalent […]

T1 sequence (Q9NWZ3 whole entry): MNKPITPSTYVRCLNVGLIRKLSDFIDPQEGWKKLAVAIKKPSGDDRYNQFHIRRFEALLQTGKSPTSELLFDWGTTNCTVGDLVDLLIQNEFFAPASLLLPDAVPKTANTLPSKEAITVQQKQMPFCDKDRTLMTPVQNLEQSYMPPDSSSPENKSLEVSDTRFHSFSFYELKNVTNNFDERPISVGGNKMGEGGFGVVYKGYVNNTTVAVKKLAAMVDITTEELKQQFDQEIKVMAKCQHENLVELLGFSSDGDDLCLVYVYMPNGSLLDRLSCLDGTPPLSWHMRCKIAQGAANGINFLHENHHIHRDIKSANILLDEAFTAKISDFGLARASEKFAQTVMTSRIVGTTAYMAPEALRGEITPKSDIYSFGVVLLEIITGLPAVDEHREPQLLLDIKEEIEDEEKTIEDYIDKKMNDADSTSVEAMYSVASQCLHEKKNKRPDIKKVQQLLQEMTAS
T2 sequence (Q9NWZ3 whole entry): as above
T3 sequence (Q96EP0 697-1072 R1032A): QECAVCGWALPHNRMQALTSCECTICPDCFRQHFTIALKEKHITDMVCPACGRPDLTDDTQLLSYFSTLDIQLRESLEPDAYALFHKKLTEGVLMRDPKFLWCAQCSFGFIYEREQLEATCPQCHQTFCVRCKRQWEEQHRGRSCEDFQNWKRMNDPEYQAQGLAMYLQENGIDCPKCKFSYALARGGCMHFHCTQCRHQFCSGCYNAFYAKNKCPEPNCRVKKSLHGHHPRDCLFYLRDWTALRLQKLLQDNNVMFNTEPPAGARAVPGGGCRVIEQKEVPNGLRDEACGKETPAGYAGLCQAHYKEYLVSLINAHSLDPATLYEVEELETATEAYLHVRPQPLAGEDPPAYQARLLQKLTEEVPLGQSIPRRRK

Row | SMILES | IC50 (IRAK4; 1 h preincubation, 6 nM IRAK4, 50 μM ATP) | inhibition of IRAK4 substrate phosphorylation (IRAK4; concentrations up to 200 μM) | labelling of IRAK4-FLAG [1] | labeling of HOIP RBR R1032A (HOIP RBR R1032A mutant)
1 | COC(=O)/C=C/CNC(=O)c1cc2c([nH]c1=O)CCCC2 [Compound 11a] | > 200 µM | no inhibition | confirmed by LCMS | 
2 | COC(=O)/C=C/CNC(=O)c1cc2c([nH]c1=O)CCC2 [Compound 5] |  |  |  | > 85%
